Tests used:
[1] = tested on: Memory-impaired aged rats; assay: Radial Arm Maze task, 2-hr delay, acute brivaracetam or seletracetam; format: in vivo, rat; conditions: 0.0625-4 mg/kg i.p. 30-40 min prior to test sessions; repeated measures ANOVA
Procedure: (§1) The radial arm maze experiments used acute administration of seletracetam (0-4 mg/kg), brivaracetam (0-4 mg/kg), or saline vehicle given by intraperitoneal injection (in a volume of 1 ml/kg) 30-40 min prior to test sessions. In the chronic treatment experiment, memory-impaired aged rats were implanted subcutaneously in the intrascapular region with osmotic mini-pumps (ALZET, Durect Corporation, Cupertino, Calif.) with brivaracetam (2 mg/kg/day) or saline vehicle starting two weeks prior to assessment in the water maze.
A radial arm maze (RAM) task was used to assess effects of acute drug treatment with seletracetam and brivaracetam. This protocol allowed within-subject assessment across drugs at different doses. The radial maze consisted of eight arms projecting from each side of an octagonal center platform, with a food well located at the distal end of each arm. Plexiglas blocks could be positioned to prevent entry into any arm. Extra-maze cues were provided in the room surrounding the maze and illumination was provided by an overhead light.
Pre-training, as described in detail in Chappell et al. Neuropharmacology 37: 481-487, (1998), consisted of habituation, standard win-shift training, and win-shift training with delays interposed between information and memory test phases. […]

[2] = tested on: ventral tegmental dopamine (DA) neurons of MAM rats; conditions: cited from earlier work
MAM-treated rats = conditions: cited from earlier work
[3] = tested on: HPC neurons in saline-treated and MAM-treated animals; conditions: cited from earlier work
[4] = tested on: Memory-impaired aged rats; assay: water maze probe test after chronic brivaracetam (osmotic mini-pumps); format: in vivo, rat; conditions: brivaracetam 2 mg/kg/day, 14 days
Procedure: as §1
Rats were trained and tested in a novel water maze environment to assess the effect of drug treatment. The water maze used here was housed in a different building and was surrounded by curtains with a novel set of patterns relative to the maze used for initial assessment of cognitive status. The training protocol consisted of 6 trials per day for 2 days to locate a submerged escape platform. On each trial, a rat was released in the maze from one of four equally spaced starting positions around the perimeter of the pool. The starting position varied from trial to trial. […] The rat was then removed from the platform and placed in a holding cage for another 40 s before the next trial. Approximately 24 hr after the last training trial, a probe test in the absence of the escape platform was given to assess spatial memory.

With `CC[C@@H](C(N)=O)N1C[C@H](C=C(F)F)CC1=O` [seletracetam] the “number of errors in the retention phase after the 2-hr delay, effect of dose” value [1] was “significant effect as a function of dose”.
In the case of `C#Cc1ccc2c(c1)C(c1ccccc1F)=N[C@H](C)c1c(C(=O)OCC)ncn1-2` [SH-053-2′F—R—CH3], the “number of spontaneously active DA neurons in the ventral tegmental area (VTA) of MAM rats” value ([2]; administered systemically and directly infused into the ventral HPC) is listed as “reduces”, the “increased locomotor response to amphetamine in MAM-treated rats” value (MAM-treated rats; following the α5GABAAR PAM treatment) is listed as “reduced” and the “cortical-evoked responses of HPC neurons” value [3] is listed as “diminished”.
With `CCC[C@@H]1CC(=O)N([C@@H](CC)C(N)=O)C1` [brivaracetam] the “number of errors in the retention phase after the 2-hr delay, effect of dose” value [1] was “significant effect as a function of dose”, the “spatial bias for the target quadrant compared to the other quadrants” value [4] was “significant spatial bias” and the “time in the target annulus vs vehicle-treated rats” value [4] was “significantly more time”. For the same compound, the “time in the target quadrant vs vehicle-treated rats” value [4] was “significantly more time”.
For `NC1=N[C@H](O)[C@H]2[C@H]3O[C@]4(O)O[C@@H]([C@@H](O)[C@@]2(N1)[C@@H]4O)[C@]3(O)CO` [TTX, tetrodotoxin], the “elevated DA neuron population activity” value ([2]; rat, in vivo) is given as “completely reversed” and the “augmented amphetamine-induced locomotor behavior” value (MAM-treated rats; rat, in vivo) is given as “normalized”.
